We go through 31 molecules from patent US6627651B1, “Cyclic compounds and uses thereof” (Takeda Chemical Industries, Ltd., priority 1999, dated 2003).

SMILES strings stand for the structures.

Broadly, the melting point is the temperature of the solid-liquid transition. For the molecule `Cc1ccc(-c2ccc3c(c2)C=C(C(=O)N[C@H]2CC[C@H](CN(C)C4CCOCC4)CC2)CO3)cc1` [Compound 67, trans-6-(4-methylphenyl)-N-[4-[N-methyl-N-(tetrahydropyran-4-yl)aminomethyl]cyclohexyl]-2H-1-benzopyran-3-carboxamide], the melting point lay in the range of 141 to 143 °C.
With `Cc1ccc(C2=Cc3cc(C(=O)Nc4ccc(C[N+](C)(C)C5CCOCC5)cc4)ccc3OC2)cc1.[I-]` [Compound 28, N,N-dimethyl-N-[4-[[3-(4-methylphenyl)-2H-1-benzopyran-6-carbonyl]amino]benzyl]-4-tetrahydropyranylammonium iodide], the melting point was 215 to 218 °C (dec.).
Next, `Cc1ccc(-c2ccc3c(c2)C=C(C(=O)Nc2ccc(C4=NCCN4)cc2)CCO3)cc1` [Compound 92, N-[4-(2-imidazolin-2-yl)phenyl]-7-(4-methylphenyl)-2,3-dihydro-1-benzooxepine-4-carboxamide]: 282 to 283 °C.
Take `Cc1ccc(-c2ccc3nc(C)c(C(=O)N[C@H]4CC[C@H](CN(C)C5CCOCC5)CC4)cc3c2)cc1` [Compound 70, trans-2-methyl-6-(4-methylphenyl)-N-[4-[N-methyl-N-(tetrahydropyran-4-yl)aminomethyl]cyclohexyl]quinoline-3-carboxamide]: the melting point lay in the range of 163 to 165 °C.
Next, `CCCc1ccc(Oc2ccc3c(c2)C=C(C(=O)Nc2ccc(CN(C)C4CCOCC4)cc2)CCS3(=O)=O)cc1` [Compound 113, N-[4-[[N-methyl-N-(tetrahydropyran-4-yl)amino]methyl]phenyl]-7-(4-propylphenoxy)-1,1-dioxo-2,3-dihydro-1-benzothiepine-4-carboxamide]: 147 to 149 °C.
Next, `Cc1ccc(-c2ccc3c(c2)C=C(C(=O)NC2CCN(Cc4ccccc4)CC2)CCO3)cc1` [Compound 58, N-(1-benzylpiperidin-4-yl)-7-(4-methylphenyl)-2,3-dihydro-1-benzooxepine-4-carboxamide]: 161 to 162 °C (dec.); `Cc1ccc(-c2ccc3cc(C(=O)Nc4ccc(CN(C)C5CCOCC5)cc4)n(C)c3c2)cc1` [Compound 24, 1-methyl-6-(4-methylphenyl)-N-[4-[N-methyl-N-(tetrahydropyran-4-yl)aminomethyl]phenyl]-1H-indole-2-carboxamide]: 225 to 226 °C.
In the case of `Cc1ccc(-c2coc(/C=C/C(=O)N[C@H]3CC[C@H](CN(C)C4CCOCC4)CC3)c2)cc1` [Compound 74, (trans, E)-3-[4-(4-methylphenyl)furan-2-yl]-N-[4-[N-methyl-N-(tetrahydropyran-4-yl)aminomethyl]cyclohexyl]acrylamide], the melting point was 165 to 167 °C.
`CCOc1cccc(COc2ccc3c(c2)C=C(C(=O)Nc2ccc(CN(C)C4CCOCC4)cc2)CCS3(=O)=O)c1` [Compound 118, 7-(3-ethoxybenzyloxy)-N-[4-[[N-methyl-N-(tetrahydropyran-4-yl)amino]methyl]phenyl]-1,1-dioxo-2,3-dihydro-1-benzothiepine-4-carboxamide] registered a melting point of 189 to 192 °C.
Next, `Cc1ccc(COc2cccc(C(=O)Nc3ccc(C[N+]4(C)CCCCC4)cc3)c2)cc1.[I-]` [Compound 88, 1-methyl-1-[4-[3-(4-methylbenzyloxy)benzoylamino]benzyl]piperidinium iodide]: 210 to 212 °C; `C[N+]1(Cc2ccc(NC(=O)C3CCc4ccc(-c5ccccc5)cc4C3)cc2)CCCCC1.[I-]` (stereo not shown) [Compound 83, 1-[4-(7-phenyl-1,2,3,4-tetrahydronaphthalene-2-carboxamido)benzyl]-1-methylpiperidinium iodide]: 205 to 208 °C; `CCOCCOc1ccc(COc2ccc3c(c2)C=C(C(=O)Nc2ccc(CN(C)C4CCOCC4)cc2)CCS3(=O)=O)cc1` [Compound 107, N-[4-[[N-methyl-N-(tetrahydropyran-4-yl)amino]methyl]phenyl]-7-[[4-(2-ethoxyethoxy)benzyl]oxy]-1,1-dioxo-2,3-dihydro-1-benzothiepine-4-carboxamide]: 185 to 187 °C.
The result for `Cc1ccc(-c2ccc3c(c2)C=C(C(=O)N[C@H]2CC[C@H](CN(C)C4CCOCC4)CC2)CCC3)cc1` [Compound 64, trans-2-(4-methylphenyl)-N-[4-[N-methyl-N-(tetrahydropyran-4-yl)aminomethyl]cyclohexyl]-6,7-dihydro-5H-benzocycloheptene-8-carboxamide] reads 163 to 165 °C.
Turning to `Cc1ccc(-c2ccc3c(c2)C=C(C(=O)N2CCC(N)CC2)CCO3)cc1` [Compound 76, 4-amino-1-(7-(4-methylphenyl)-2,3-dihydro-1-benzooxepine-4-carbonyl)piperidine], the melting point was 123 to 127 °C.
Next, `CN(Cc1ccc(NC(=O)C2CCS(=O)(=O)c3ccc(OCc4ccc(F)cc4)cc3C2)cc1)C1CCOCC1` (stereo not shown) [Compound 3, 7-(4-fluorobenzyloxy)-N-[4-[N-methyl-N-(tetrahydropyran-4-yl)aminomethyl]phenyl]-1,1-dioxo-3,4-dihydro-1-benzothiepine-4-carboxamide]: 232 to 234 °C.
The result for `Cc1ccc(C2=Cc3cc(C(=O)N[C@H]4CC[C@H](CN(C)C5CCOCC5)CC4)ccc3OC2)cc1` [Compound 68, trans-3-(4-methylphenyl)-N-[4-[N-methyl-N-(tetrahydropyran-4-yl)aminomethyl]cyclohexyl]-2H-1-benzopyran-6-carboxamide] reads 205 to 207 °C; that for `Cc1ccc(-c2csc(/C=C/C(=O)N[C@H]3CC[C@H](CN(C)C4CCOCC4)CC3)c2)cc1` [Compound 72, (trans, E)-3-[4-(4-methylphenyl)thiophen-2-yl]-N-[4-[N-methyl-N-(tetrahydropyran-4-yl)aminomethyl]cyclohexyl]acrylamide], 180 to 183 °C; that for `CCCOCCOc1ccc(Oc2ccc3c(c2)C=C(C(=O)Nc2ccc(CN(C)C4CCOCC4)cc2)CCS3(=O)=O)cc1OCC` [Compound 114, 7-[3-ethoxy-4-(2-propoxyethoxy)phenoxy]-N-[4-[[N-methyl-N-(tetrahydropyran-4-yl)amino]methyl]phenyl]-1,1-dioxo-2,3-dihydro-1-benzothiepine-4-carboxamide], 159 to 160 °C.
Next, `CCCOc1ccccc1CCCOc1ccc2c(c1)C=C(C(=O)Nc1ccc(CN(C)C3CCOCC3)cc1)CCS2(=O)=O` [Compound 119, N-[4-[[N-methyl-N-(tetrahydropyran-4-yl)amino]methyl]phenyl]-7-[3-(2-propoxyphenyl)propoxy]-1,1-dioxo-2,3-dihydro-1-benzothiepine-4-carboxamide]: 184 to 186 °C; `CCNC(=N)c1ccc(NC(=O)C2=Cc3cc(-c4ccc(C)cc4)ccc3OCC2)cc1.Cl`: greater than 300 °C.
Molecule `Cc1ccc(COc2cccc(/C=C/c3ccc(C[N+]4(C)CCCCC4)cc3)c2)cc1.[I-]` [Compound 98, (E)-1-methyl-1-[4-[3-(4-methylbenzyloxy)styryl]benzyl]piperidinium iodide] gave a melting point of 189 to 192 °C.
The result for `Cc1ccc(-c2ccc3c(c2)C=C(C(=O)NC2CCN(CC4CCCCC4)CC2)CCO3)cc1` [Compound 55, N-(1-cyclohexylmethylpiperidin-4-yl)-7-(4-methylphenyl)-2,3-dihydro-1-benzooxepine-4-carboxamide] reads 180 to 181 °C.
`CCCOc1ccccc1CCOc1ccc2c(c1)C=C(C(=O)Nc1ccc(CN(C)C3CCOCC3)cc1)CCS2(=O)=O` [Compound 106, N-[4-[[N-methyl-N-(tetrahydropyran-4-yl)amino]methyl]phenyl]-7-[(2-propoxyphenethyl)oxy]-1,1-dioxo-2,3-dihydro-1-benzothiepine-4-carboxamide] gave a melting point of 161 to 162 °C.
The result for `CCOCCOc1c(C)cc(Oc2ccc3c(c2)C=C(C(=O)Nc2ccc(CN(C)C4CCOCC4)cc2)CCS3(=O)=O)cc1C` [Compound 126, 7-[4-(2-ethoxyethoxy)-3,5-dimethylphenoxy]-N-[4-[[N-methyl-N-(tetrahydro-2H-pyran-4-yl)amino]methyl]phenyl]-1,1-dioxo-2,3-dihydro-1-benzothiepine-4-carboxamide] reads 111 to 113 °C; that for `Cc1ccc(-c2ccc3c(c2)CN(C(=O)Nc2ccc(C[N+]4(C)CCCCC4)cc2)CC3)cc1.[Cl-]`, 179 to 180 °C (dec.); that for `COc1cccc(COc2ccc3c(c2)C=C(C(=O)Nc2ccc(CN(C)C4CCOCC4)cc2)CCS3(=O)=O)c1` [Compound 117, 7-(3-methoxybenzyloxy)-N-[4-[[N-methyl-N-(tetrahydropyran-4-yl)amino]methyl]phenyl]-1,1-dioxo-2,3-dihydro-1-benzothiepine-4-carboxamide], 181 to 185 °C.
The result for `Cc1ccc(COc2cccc(C(=O)Nc3ccc(CN4CCCCC4)cc3)c2)cc1` [Compound 85, 3-(4-methylbenzyloxy)-4′-(piperidinomethyl)benzanilide] reads 153 to 155 °C.
The result for `CCOCCOc1ccccc1COc1ccc2c(c1)C=C(C(=O)Nc1ccc(CN(C)C3CCOCC3)cc1)CCS2(=O)=O` [Compound 104, 7-[[2-(2-ethoxyethoxy)benzyl]oxy]-N-[4-[[N-methyl-N-(tetrahydropyran-4-yl)amino]methyl]phenyl]-1,1-dioxo-2,3-dihydro-1-benzothiepine-4-carboxamide] reads 132 to 136 °C; that for `O=C(Nc1ccc(CN2CCCCC2)cc1)C1CCc2ccc(-c3ccccc3)cc2C1` (stereo not shown) [Compound 82, N-[4-(piperidinomethyl)phenyl]-7-phenyl-1,2,3,4-tetrahydronaphthalene-2-carboxamide], 185 to 187 °C; that for `Cc1ccc(-c2ccc3c(c2)C=C(CN2CCC(NC4CCOCC4)CC2)CCO3)cc1` [Compound 80, 1-(7-(4-methylphenyl)-2,3-dihydro-1-benzooxepin-4-yl)methyl-4-((tetrahydropyran-4-yl)amino)piperidine], 101 to 103 °C.
As to `Cc1ccc(-c2cncc(/C=C/C(=O)N[C@H]3CC[C@H](CN(C)C4CCOCC4)CC3)c2)cc1` [Compound 73, (trans, E)-3-[5-(4-methylphenyl)pyridin-3-yl]-N-[4-[N-methyl-N-(tetrahydropyran-4-yl)aminomethyl]cyclohexyl]acrylamide], the melting point was in the range of 233 to 236 °C.
